In patent publication US6391827B1, “Pyrrolic compounds having a high herbicidal activity and their agronomic use” (Isagro Ricerca S.r.l., priority 1999, dated 2002):

Key:
Assay type in all cases: in vivo
Set-up in all cases: key: 0=0-20% of damage; 1=21-40%; 2=41-60%; 3=61-80%; 4=81-95%; 5=death of the plant treated
Conditions in all cases: 150 g/hectare, evaluated 21 days after treatment, damage vs blank
[1] = tested on: Amarantus retraflexus (AR); experiment: Herbicidal activity in post-emergence, Amarantus retraflexus
Experimental: (§1) The herbicidal activity of the compounds of the invention was evaluated with respect to both monocotyledon and dicotyledon weeds, in post- and pre-emergence treatment.
(§2) The evaluation tests were carried out according to the following operative procedures.
(§3) Vases (diameter over 10 cm, height 10 cm) containing sandy medium were prepared. One of the following weeds was planted in each of them: Abutilon theofrasti (AT), Amarantus retraflexus (AR), Chenopodium album (CA), Convolvulus sepium (CS), Portulaca oleracea (PO), Solanum nigrum (SN), Ipomea purpurea (IP).
(§4) Water was added to each vase in a suitable quantity for a good germination of the seeds. The vases were divided into two groups, each group containing at least 5 vases for each weed.
(§5) The first group was not treated with herbicide and was used as a comparison (blank).
(§6) The second group of vases was treated fifteen days after sowing (i.e. when the small weed plants, depending on the species, were 10-15 cm high) with a hydroacetone dispersion at 20% by volume of acetone of the product to be evaluated (herbicidal activity in post-emergence). All the vases were kept under observation in a conditioned environment under the following environmental conditions:
(§7) light intensity: 10000 lux
(§8) Every two days, the vases were uniformly watered to ensure a sufficient degree of humidity for a good development of the plants.
(§9) 21 days after treatment, the herbicidal activity was evaluated on the basis of the following scale of values referring to the percentage of damage measured on the treated plants with respect to those not treated (blank): […]

[2] = tested on: Ipomea purpurea (IP); experiment: Herbicidal activity in post-emergence, Ipomea purpurea
Experimental: as §1, §2, §3, §4, §5, §6, §7, §8, §9

[3] = tested on: Portulaca oleracea (PO); experiment: Herbicidal activity in post-emergence, Portulaca oleracea
Experimental: as §1, §2, §3, §4, §5, §6, §7, §8, §9

[4] = tested on: Abutilon theofrasti (AT); experiment: Herbicidal activity in post-emergence, Abutilon theofrasti
Experimental: as §1, §2, §3, §4, §5, §6, §7, §8, §9

[5] = tested on: Convolvulus sepium (CS); experiment: Herbicidal activity in post-emergence, Convolvulus sepium
Experimental: as §1, §2, §3, §4, §5, §6, §7, §8, §9

[6] = tested on: Chenopodium album (CA); experiment: Herbicidal activity in post-emergence, Chenopodium album
Experimental: as §1, §2, §3, §4, §5, §6, §7, §8, §9

[7] = tested on: Solanum nigrum (SN); experiment: Herbicidal activity in post-emergence, Solanum nigrum
Experimental: as §1, §2, §3, §4, §5, §6, §7, §8, §9

C#CCOc1cc(-c2c(Br)c(C(F)(F)F)n(C)c2Cl)c(F)cc1Cl [Compound 17, 4-bromo-3-[4-chloro-2-fluoro-5-(2-propinyloxy)phenyl]-2-chloro-1-methyl-5-trifluoromethyl pyrrole]
5: Herbicidal activity in post-emerqence, AR [1] | Herbicidal activity in post-emerqence, IP [2] | Herbicidal activity in post-emerqence, PO [3] | Herbicidal activity in post-emerqence, AT [4] | Herbicidal activity in post-emerqence, CS [5] | Herbicidal activity in post-emerqence, CA [6] | Herbicidal activity in post-emerqence, SN [7]

CCOC(=O)COc1cc(-c2c(Br)c(C(F)(F)F)n(C)c2Br)c(F)cc1Cl [Compound 4, ethyl 2-chloro-5-(2,4-dibromo-1-methyl-5-trifluoromethylpyrrol-3-yl)-4-fluorophenoxy acetate]
5: Herbicidal activity in post-emerqence, AR [1] | Herbicidal activity in post-emerqence, IP [2] | Herbicidal activity in post-emerqence, PO [3] | Herbicidal activity in post-emerqence, AT [4] | Herbicidal activity in post-emerqence, CS [5] | Herbicidal activity in post-emerqence, CA [6] | Herbicidal activity in post-emerqence, SN [7]

C#CCOc1cc(-c2c(Br)c(C(F)(F)F)n(C)c2Br)c(F)cc1Cl [Compound 5, 3-[4-chloro-2-fluoro-5-(2-propinyloxy)phenyl]-2,4-dibromo-1-methyl-5-trifluoromethylpyrrole]
5: Herbicidal activity in post-emerqence, AR [1] | Herbicidal activity in post-emerqence, IP [2] | Herbicidal activity in post-emerqence, PO [3] | Herbicidal activity in post-emerqence, AT [4] | Herbicidal activity in post-emerqence, CS [5] | Herbicidal activity in post-emerqence, CA [6] | Herbicidal activity in post-emerqence, SN [7]

CCOC(=O)COc1cc(-c2c(Br)c(C(F)(F)F)n(C)c2Cl)c(F)cc1Cl [Compound 18, ethyl-5-(4-bromo-2-chloro-1-methyl-5-trifluoromethylpyrrol-3-yl)-2-chloro-4-fluorophenoxyacetate]
5: Herbicidal activity in post-emerqence, AR [1] | Herbicidal activity in post-emerqence, IP [2] | Herbicidal activity in post-emerqence, PO [3] | Herbicidal activity in post-emerqence, AT [4] | Herbicidal activity in post-emerqence, CS [5] | Herbicidal activity in post-emerqence, CA [6] | Herbicidal activity in post-emerqence, SN [7]

C#CCOc1cc(-c2c(Cl)c(C(F)(F)F)n(C)c2Cl)c(F)cc1Cl [Compound 14, 3-[4-chloro-2-fluoro-5-(2-propinyloxy)phenyl]-2,4-dichloro-1-methyl-5-trifluoromethyl pyrrole]
5: Herbicidal activity in post-emerqence, AR [1] | Herbicidal activity in post-emerqence, IP [2] | Herbicidal activity in post-emerqence, PO [3] | Herbicidal activity in post-emerqence, AT [4] | Herbicidal activity in post-emerqence, CS [5] | Herbicidal activity in post-emerqence, CA [6] | Herbicidal activity in post-emerqence, SN [7]

CCOC(=O)COc1cc(-c2c(Cl)c(C(F)(F)F)n(C)c2Cl)c(F)cc1Cl [Compound 15, ethyl [2-chloro-5-(2,4-dichloro-1-methyl-5-trifluoro methylpyrrol-3-yl)-4-fluorophenoxy]acetate]
5: Herbicidal activity in post-emerqence, AR [1] | Herbicidal activity in post-emerqence, IP [2] | Herbicidal activity in post-emerqence, PO [3] | Herbicidal activity in post-emerqence, AT [4] | Herbicidal activity in post-emerqence, CS [5] | Herbicidal activity in post-emerqence, CA [6] | Herbicidal activity in post-emerqence, SN [7]
